Measured values taken from patent US8618068B2, “Methods and low dose regimens for treating red blood cell disorders” (priority 2009, dated 2013).
Marks after values point to notes of the source that are not given here.

Experiments:
γ-globin mRNA = γ-globin mRNA in anemic baboons given HU and DMB; type: in vivo; details: HU 3 days/week
fetal globin = details: cited from earlier work
F-cells = F-cells in Bfu-e erythroid progenitor cultures; type: cell-based
[1] = system: micronucleated erythrocytes (PCEs); details: cited from earlier work
[2] = system: β- and γ-globin gene promoters; test: Double-luciferase reporter assay of γ-globin expression in GM979 cells; type: cell-based, murine
From the text: DMB was compared to arginine butyrate (AB) for its ability to induce y-globin expression in a double-luciferase reporter assay in murine erythroleukemia (GM979) cells transfected with the pLCR linked to the β- and γ-globin gene promoters linked to a different luciferase gene.

In the case of `NC(=O)NO` [HU, hydroxyurea], the “γ-globin mRNA increase above baseline” value (γ-globin mRNA) is given as 80-120%, the “patients in whom clinical benefit is observed” value (fetal globin; SCD patients) is given as 40-50% and the “treatment required for optimal effects on HbF” value (fetal globin; at a level close to the maximum tolerated dose) is given as 6-9 months.

In the case of `Nc1ncn([C@H]2C[C@H](O)[C@@H](CO)O2)c(=O)n1` [decitabine, 5-aza-2′-deoxycytidine, reference compound], the “F-cells increase above F-cell levels in control cultures” value (F-cells) is reported as 66-104%.

For `O=P1(N(CCCl)CCCl)NCCCO1` (stereo not shown) [cyclophosphamide], the “historical positive control values, mean±SD” value [1] is listed as 19.2±15.5 MN PCEs/1,000 PCEs.

With Arginine butyrate [reference compound] the “Mean Fold Increase” value ([2]; 0.5 mM, compared to untreated controls, p ≦ 0.01) was 1.8* and the “γ/(γ + β) globin Expression, Range” value ([2]; Active Concentration 0.5 mM) was 0.029-0.047.
